The numbers were not newly measured in patent publication US20110020252A1, “METHOD OF LONG LASTING HUMAN SKIN TANNING” (priority 2010, published 2011), which cites them from elsewhere.

The data set concerns gram-positive cocci (including methicillin-resistant Staphylococcus aureus-MSRA), some gram-negative organisms, Legionella, many mycobacterium and some fungi. The conditions noted are these: cited from earlier work.

For `CO[C@H]1/C=C/O[C@@]2(C)Oc3c(C)c(O)c4c(O)c(c(/C=N/N5CCN(C)CC5)c(O)c4c3C2=O)NC(=O)/C(C)=C\C=C\[C@H](C)[C@H](O)[C@@H](C)[C@@H](O)[C@@H](C)[C@H](OC(C)=O)[C@@H]1C` [Rifampin], the antimicrobial activity entry is “good activity”.
